Experimental data from patent US20140212493A1, “Highly Bioavailable Composition Containing Eprosartan - Poloxamer Complex or 2-(7-Chloro-5-Methyl-4-Oxo-3-Phenyl-4,5-Dihydro-3H-Pyridazine (4,5-b)Indol-1-yl)-N,N-Dimethylacetamide - Poloxamer Complex” (BVM Holding Co., priority 2003, published 2014).
Structures can show the parent of a compound that is named as a salt.

Assays:
[1] = Dissolution of NZ and NZ-poloxamer complex, USP apparatus II, purified water; format: physicochemical; conditions: equivalent to 20mg drug, 1000 ml purified water, 37° C., 75 rpm
Method: (§1) The dissolution rate of the association complex may be carried out using a suitable solvent such as 0.1 N HCl purified water, or simulated gastric fluid, as dissolution medium. The testing is conducted under conditions intended to simulate ingestions at about 37° C. and from about 25 to about 75 rpm. The dissolution may be tested using any method known in the art such as USP apparatus I (a basket apparatus) or USP apparatus II (a paddle apparatus) (USP 27/NF 22, 2004, <711>, page 2303). Samples of the solution are taken at preselected intervals such as at every fifteen minutes up to one hour.
Lutrol F-68 and NZ, 250 mg are mixed in a jacketed vessel (KG 5) and heated to 53° C. while mixing for about 2 hours. The resulting complex thus formed is allowed to cool to room temperature and sieved through a 40 mesh screen. The dissolution of the complex equivalent to 20mg drug is determined using USP apparatus II, 1000 ml of purified water as the dissolution medium at 37° C. and 75 rpm.

[2] = Dissolution of EPM and EPM-poloxamer complexes, USP apparatus II, SGF; format: physicochemical; conditions: equivalent to 400 mg dose, SGF without pepsin, 37° C., 25 rpm
Method: as §1
Lutrol F-68, 1.0 gm, and EPM, 1.0 gm, are mixed in a jacketed vessel (KG5) heated to 53° C. while mixing for about 2 hrs. The resulting complex, in the form of free flowing granules, thus formed is allowed cool to room temperature and sieved through a 40 mesh screen. The dissolution of the complex equivalent to the 400 mg dose is determined using USP apparatus II, 900 ml of SGF (simulated gastric fluid without pepsin) as the dissolution medium at 37° C. and 25 rpm.
The dissolution of the complex equivalent to a 400 mg dose is determined using USP apparatus II, in SGF as the dissolution medium at 37° C. and 25 rpm.

| % DISSOLVED ([1]; 15 minutes) [%] | % DISSOLVED ([1]; 30 minutes) [%] | % DISSOLVED ([1]; 45 minutes) [%] | % DISSOLVED ([1]; 60 minutes) [%] | % DISSOLVED ([2]; 15 minutes) [%] | % DISSOLVED ([2]; 30 minutes) [%] | % DISSOLVED ([2]; 45 minutes) [%] | % DISSOLVED ([2]; 60 minutes) [%] | SMILES |
| --- | --- | --- | --- | --- | --- | --- | --- | --- |
| 0.65 | 1.90 | 2.53 | 3.14 |  |  |  |  | CN(C)C(=O)Cc1nn(-c2ccccc2)c(=O)c2c1c1ccc(Cl)cc1n2C [NZ, 2-(7-chloro-5-methyl-4-oxo-3-phenyl-4,5 dihydro-3H-pyridazino (4,5-b)-indol-1-yl)-N,N-dimethylacetamide] |
|  |  |  |  | 38.7 | 51.9 | 61.3 | 61.7 | CCCCc1ncc(/C=C(\Cc2cccs2)C(=O)O)n1Cc1ccc(C(=O)O)cc1 [EPM, eprosartan mesylate] |
